# Laboratory results taken from EP0307077A1, “Tetrahydrocarbazoles for the improvement of cyclosporin therapy” (MERCK FROSST CANADA INC., priority 1987, dated 1989).
# Key:
# [1] = test system: female spontaneously hypertensive (SHR) rats; assay: Cyclosporine A-induced nephrotoxicity, 14 days dosing, serum BUN (Example 63); format: in vivo
# Description: All experiments were carried out using female spontaneously hypertensive (SHR) rats, weight range 160-200 gm, obtained from Taconic Farms. […] Three thromboxane antagonists have been studied. […] Thromboxane antagonists have been administered as the sodium salt dissolved in saline, the sodium salt dissolved in 0.1% NaHCO3 or the free acid suspended in 1% Methocel.
# [2] = test system: female spontaneously hypertensive (SHR) rats; assay: Cyclosporine A-induced nephrotoxicity, pilot study, 2 weeks dosing, serum BUN and creatinine (Example 64); format: in vivo; settings: for Serum BUN / Serum Creatinine: 2 weeks, means ± S.E.M. (n = 8)
# [3] = test system: female spontaneously hypertensive (SHR) rats; assay: Cyclosporine A-induced nephrotoxicity, 5 week study, serum BUN, serum creatinine, creatinine clearance (Example 64); settings: for Mean Serum BUN Values: Compound 63 (10 mg/kg/day) and Cyclosporine A; for Mean Serum Creatinine Levels: Compound 63 (10 mg/kg/day) and Cyclosporine
# Description: Experiments were carried out using groups of 6 female spontaneously hypertensive (SHR) rats, weight range 166-194 gm, obtained form Taconic Farms. […] At weekly intervals form 2 weeks onwards, animals were placed in individual metabolism cages and 24 hr urin samples collected, the volume measured and the creatinine levels determined (Lakeshore Diagnostic Laboratories). Creatinine clearance per rat was calculated from the formula: [formula] where Ucr = concentration of creatine in urine • Per = concentration of creatinine in plasma • V = volume of urine flow in ml/min
# After removal from the metabolism cage, a blood sample was taken from each rat for determination of serum BUN and creatinine (Lakeshore Diagnostic Laboratories). In a preliminary study, groups of 8 rats were dosed as above for 2 weeks only and serum samples removed for determination of BUN and creatinine as above.
# rats = settings: cyclosporine A nephrotoxicity model, Penico et al. 1986; cited from earlier work
# [4] = Cyclosporine A and Compound 63 3 mg/kg/day
# [5] = Cyclosporine A and Compound 63 10 mg/kg/day
structure (smiles),measurement,setting,value
"O=C(O)CC1CCCc2c1n(Cc1ccc(Cl)cc1)c1ccc(F)cc21 (racemic) [Compound 1, 9-p-chlorobenzyl-6-fluoro-1,2,3,4-tetrahydracarbazol-1-yl-acetic acid]",inhibition of the increase in serum BUN,"[1]; Table 1 (Experiment 1), 3 mg/kg/day in saline with cyclosporine A",significant inhibition
"CS(=O)(=O)c1ccc(Cn2c3c(c4cc(F)cc(F)c42)CCCC3CC(=O)O)cc1 (single isomer, unassigned) [Compound 63]",reduction of the increase in serum BUN,"[2]; 3 or 10 mg/kg/day with cyclosporine A, pilot study",significantly reduced the increase in serum BUN to control levels
same,Serum BUN,[2]; [4],20.8 ± 1.0 mg/dL
same,Serum Creatinine,[2]; [4],0.64 ± 0.02 mg/dL
same,Serum BUN,[2]; [5],22.2 ± 0.7 mg/dL
same,Serum Creatinine,[2]; [5],0.65 ± 0.04 mg/dL
same,reduction of the increase in serum creatinine,"[2]; higher dose (10 mg/kg/day) with cyclosporine A, pilot study, p = 0.07",failed to reach statistical significance
same,reduction of the increase in serum creatinine,"[2]; lower dose (3 mg/kg/day) with cyclosporine A, pilot study",significantly reduced the increase in serum creatinine
same,Mean Serum BUN Values,[3]; week 2,26.4 ± 0.9 mg/dL
same,Mean Serum BUN Values,[3]; week 3,22.3 ± 1.7 mg/dL
same,Mean Serum BUN Values,[3]; week 4,24.0 ± 1.4 mg/dL
same,Mean Serum BUN Values,[3]; week 5,21.0 ± 1.1 mg/dL
same,Mean Serum Creatinine Levels,[3]; week 2,0.51 ± 0.03 mg/dL
same,Mean Serum Creatinine Levels,[3]; week 3,0.44 ± 0.01 mg/dL
same,Mean Serum Creatinine Levels,[3]; week 4,0.54 ± 0.02 mg/dL
same,Mean Serum Creatinine Levels,[3]; week 5,0.42 ± 0.01 mg/dL
same,"prevention of cyclosporine A-induced changes (serum BUN, creatinine clearance)","[3]; cotreatment with Compound 63 (10 mg/kg/day), 5 week study",prevented
same,cyclosporine A-induced nephrotoxicity,[3]; overall conclusion of Example 64,inhibits
same,"creatinine clearance, Compound 63 and cyclosporine A compared to cyclosporine A alone",[3]; week 3,significantly different
same,"creatinine clearance, Compound 63 and cyclosporine A compared to cyclosporine A alone","[3]; week 5, p = 0.07",just failed to reach statistical significance
same,"serum BUN, Compound 63 and cyclosporine A compared to cyclosporine A alone",[3]; weeks 3 and 5,significantly different
"O=C(O)CC1CCCc2c1n(Cc1ccc(Cl)cc1)c1c(F)cc(F)cc21 (single isomer, unassigned; (-)) [Compound 37, (-)-9 p-Chlorobenzyl-6,8-difluoro-1,2,3,4-tetrahydrocarbazol-1-yl-acetic acid]",inhibition of the rise in serum BUN,"[1]; both doses (3 and 10 mg/kg/day), suspension of the free acid, with cyclosporine A",significant inhibition
"CS(=O)(=O)c1ccc(Cn2c3c(c4cc(F)cc(F)c42)CCCC3CC(=O)O)cc1 (single isomer, unassigned; (-)) [Compound 50, (-)9-p-Methylsulfonylbenzyl-6,8-difluoro-1,2,3,4-tetrahydrocarbazol-1-yl acetic acid]",effects on cyclosporine A-induced rises in serum BUN,"[1]; both 3 and 10 mg/kg/day, suspension of the free acid (Table 4)",effective
"Cc1c(Cn2ccnc2)c2ccccc2n1CCC(=O)O [Uk-38,485]",glomerular filtration rate,rats,increased
same,urinary TxB2,rats,reduced
